According to PMC11825904 (Nature Communications, 2025):

Tests used:
rNsp5-L50F/E166V = type: cell-based, SARS-CoV-2; details: read-out: rNsp5-L50F/E166V EC50
rNsp5-L50F/E166A/L167F = type: cell-based, SARS-CoV-2; details: read-out: rNsp5-L50F/E166A/L167F EC50

Q: How did the EC50 (rNsp5-L50F/E166V) turn out when CC(C)(C)[C@H](NC(=O)C(F)(F)F)C(=O)N1C[C@H]2[C@@H]([C@H]1C(=O)N[C@H](C#N)C[C@@H]1CCNC1=O)C2(C)C [Nirmatrelvir, nirmatrelvir] was run?
A: Its EC50 is over 1000 nM.

Q: What about the EC50 (rNsp5-L50F/E166A/L167F) of the same compound?
A: Its EC50 is 630 nM.
